According to US4393219A, “Salt of chlorhexidine” (Maruishi Pharmaceutical Co., Ltd., priority 1981, dated 1983):
Values after ≈ are worked out from the molar mass of the structure shown. Counter-ions that a name gives are not always drawn. Like-named read-outs stand apart in the source and are kept apart here. Each block holds one compound with its values, some of them ahead of it.

Key:
[1] = prior art, cited from earlier work; for solubility in water and alcohols: water and alcohols such as methanol and ethanol, in words
[2] = test system: Acinetobacter anitratus RIMD 0102002; experiment: Minimum inhibitory concentration, Acinetobacter anitratus; type: cell-based; conditions: trypticase soy broth (BBL), heart infusion agar; for MIC: Acinetobacter calcoaceticus, RIMD0102002, A. anitratus
Experimental: Acinetobacter anitratus RIMD 0102002
(§1) The experiment was conducted according to the guide method which has been once revised and re-published by Japan Chemotherapy Association by using trypticase soy broth (BBL) as an incubation medium and heart infusion agar as a medium for determining susceptibility.

[3] = test system: Pseudomonas aeruginosa IID 1117; experiment: Minimum inhibitory concentration, Pseudomonas aeruginosa; type: cell-based; conditions: trypticase soy broth (BBL), heart infusion agar; for Minimum inhibitory concentration: Ps. aeruginosa
Experimental: Pseudomonas aeruginosa IID 1117
as §1

[4] = test system: Flavobacterium menigosepticum RIMD 0614002; experiment: Minimum inhibitory concentration, Flavobacterium menigosepticum; type: cell-based; conditions: trypticase soy broth (BBL), heart infusion agar; for Minimum inhibitory concentration: F. menigosepticum
Experimental: as §1, with “(1) Strains employed: Flavobacterium menigosepticum RIMD 0614002 (2) Method: The” for “The”

LD50 in mice = conditions: mouse, in vivo, route not stated
[5] = test system: Serratia marcescens IFO 12648; experiment: Minimum inhibitory concentration, Serratia marcescens; type: cell-based; conditions: S. marcescens, trypticase soy broth (BBL), heart infusion agar; for MIC: Serratia marcescens, IFO12648
Experimental: Serratia marcescens IFO 12648
as §1

[6] = test system: A. anitratus, F. menigosepticum, P. vulgaris, Ps. aeruginosa, S. marcescens; experiment: Antibiotic activity compared with chlorhexidine digluconate (five strains together); type: cell-based
Experimental: as §1

[7] = test system: Proteus vulgaris IFO 3045; experiment: Minimum inhibitory concentration, Proteus vulgaris; type: cell-based; conditions: trypticase soy broth (BBL), heart infusion agar; for MIC: Proteus vulgaris, IFO3045, P. vulgaris
Experimental: Proteus vulgaris IFO 3045
as §1

Solubility = type: physicochemical; conditions: in words

SMILES: [H]/N=C(\N/C(=N/[H])NCCCCCCNC(=N)NC(=N)Nc1ccc(Cl)cc1)Nc1ccc(Cl)cc1 [Chlorhexidine diacetate]
solubility in water and alcohols [1]: sparingly soluble | solubility in water [1]: 1 g per 10,000 ml

SMILES: [H]/N=C(\N/C(=N/[H])NCCCCCCNC(=N)NC(=N)Nc1ccc(Cl)cc1)Nc1ccc(Cl)cc1 [Chlorhexidine dihydrochloride]
solubility in water and alcohols [1]: sparingly soluble | solubility in water [1]: 1 g per 10,000 ml

SMILES: [H]/N=C(\N/C(=N/[H])NCCCCCCNC(=N)NC(=N)Nc1ccc(Cl)cc1)Nc1ccc(Cl)cc1 [Salt of this invention, chlorhexidine di-2-pyrrolidone-5-carboxylate]
Minimum inhibitory concentration ([2]; A. anitratus): 31.3 µg/mL | Minimum inhibitory concentration [3]: 15.6 µg/mL | Minimum inhibitory concentration [4]: 31.3 µg/mL | LD50 (LD50 in mice): ~2000 mg/kg | Minimum inhibitory concentration [5]: 125 µg/mL | antibiotic activity [6]: more potent antibiotic activity than the known chlorhexidine digluconate | Minimum inhibitory concentration ([7]; P. vulgaris): 125 µg/mL | solubility in acetone, chloroform and ether (Solubility; acetone, chloroform and ether): insoluble in acetone, chloroform and ether | solubility in water and alcohols (Solubility; water and alcohols): soluble in water and alcohols

SMILES: [H]/N=C(\N/C(=N/[H])NCCCCCCNC(=N)NC(=N)Nc1ccc(Cl)cc1)Nc1ccc(Cl)cc1 [Chlorhexidine disulfate]
solubility in water and alcohols [1]: sparingly soluble | solubility in water [1]: 1 g per 10,000 ml

MIC [2]: 4000 µg/mL (≈ 31 mM) | MIC ([3]; Pseudomonas aeruginosa, IID1117, Ps. aeruginosa): 4000 µg/mL (≈ 31 mM) | MIC ([4]; Flavobacterium, RIMD0614002, F. menigosepticum): 4000 µg/mL (≈ 31 mM) | MIC [5]: 4000 µg/mL (≈ 31 mM) | MIC [7]: 4000 µg/mL (≈ 31 mM)
SMILES: O=C1CC[C@@H](C(=O)O)N1 [Pyrrolidone-carboxylic acid, 2-Pyrrolidone-5-carboxylic acid]

SMILES: [H]/N=C(\N/C(=N/[H])NCCCCCCNC(=N)NC(=N)Nc1ccc(Cl)cc1)Nc1ccc(Cl)cc1 [Chlorhexidine digluconate, chlorhexidine digluconate]
MIC [2]: 62.5 µg/mL | Minimum inhibitory concentration [3]: 31.3 µg/mL | Minimum inhibitory concentration [4]: 125 µg/mL | MIC [5]: 125 µg/mL | solubility in water and alcohols [1]: superior solubility in water and alcohols | MIC [7]: 250 µg/mL
